This note sets out measurements from patent US20230399296A1, “RNA VIRUS INHIBITOR COMPOUNDS WITH IMPROVED METABOLIC STABILITY AND USES THEREOF” (priority 2022, published 2023).

The nature of data set [1]: Microsomal stability, human liver microsomes. The format is in vitro ADME. As for the experimental part:
(§1) Experiments were performed to assess the stability of the compounds in the presence of mouse and human liver microsomes. The experimental procedures there were used are described below. Examples of the percent remaining of the compound curves in the presence of human microsomes are shown in FIGS. 2A to 2F, and examples of the determined half-life are provided in TABLE 3.
(§2) Intermediate solution: 5 μL of compound and control stock solution (10 mM in dimethyl sulfoxide (DMSO)) were diluted with 495 μL of acetonitrile (ACN) (intermediate solution concentration: 100 μM, 99% ACN).
(§3) Working solution: 50 μL of compound and control intermediate solution (100 μM) were diluted with 450 μL of 100 mM potassium phosphate buffer (working solution concentration: 10 μM, 9.9% ACN).
(§4) The appropriate amount of NADPH powder was weighed and diluted into a 10 mM MgCl2 solution (working solution concentration: 10 unit/mL; final concentration in reaction system: 1 unit/mL).
(§5) The appropriate concentrations of microsome working solutions were prepared in 100 mM potassium phosphate buffer.
(§6) Cold (4° C.) acetonitrile (ACN) containing 200 ng/mL tolbutamide and 200 ng/mL labetalol as internal standards (IS) was used as the stop solution.
(§7) Using an Apricot automation workstation, 10 μL/well of compound working solution were added to all 96-well reaction plates except the blank (T0, T5, T10, T20, T30, T60, and NCF60). An Apricot automation workstation was used to add 80 μL/well of microsome solution to all reaction plates (Blank, T0, T5, T10, T20, T30, T60, and NCF60). All reaction plates containing mixtures of compound and microsomes were pre-incubated at 37° C. for 10 minutes. An Apricot automation workstation was used to add 10 μL/well of 100 mM potassium phosphate buffer to reaction plate NCF60. Reaction plate NCF60 was incubated at 37° C., and timer 1 was started. After pre-incubation, an Apricot automation workstation was used to add 10 μL/well of NADPH regenerating system to every reaction plate except NCF60 (Blank, T0, T5, T10, T20, T30, and T60) to start the reaction. The reaction plates were incubated at 37° C., and timer 2 was started. An Apricot automation workstation was used to add 300 μL/well of stop solution to each reaction plate at its appropriate end time point to terminate the reaction. Each plate was sealed and shaken for 10 minutes. After shaking, each plate was centrifuged at 4000 rpm and 4° C. for 20 minutes. During centrifugation, an Apricot automation workstation was used to add 300 μL/well of HPLC grade water to eight new 96-well plates. After centrifugation, an Apricot automation workstation was used to transfer 100 μL of supernatant from each reaction plate to its corresponding bioanaylsis plate. Each bioanalysis plate was sealed and shaken for 10 minutes prior to LC-MS/MS analysis.
(§8) The equation of first order kinetics was used to calculate T½: […]
In general terms: Liver microsomes are a subcellular fraction often used to study metabolism.

Data set [2] can be described thus: Microsomal stability, mouse liver microsomes. Format: in vitro ADME. As for the experimental part: as §1, §2, §3, §4, §5, §6, §7, §8
A further data set in a line: in vitro. The format is cell-based. To be noted: male, human (A549); green monkey (Vero E6). As for the experimental part:
Cell viability was measured using the CellTiter-Glo luminescent cell viability assay (Promega). Separately A549 (human lung epithelial) cells and VeroE6 cells were seeded at 5×10^3 cells/well in 96-well plates and incubated overnight before treatment. Compounds were solubilized in DMSO and added to cells in an eight-point four-fold serial dilution (200 μM to 0.0122 μM). Cells were incubated in the presence of compounds for 24 hours before addition of the luminescence substrate and measurement of ATP activity according to manufacturer's instructions. The percentage of viable cells was calculated relative to cells treated with solvent alone (0.5% DMSO).

The next data set concerns the target SARS-CoV-2 3CLP (Severe acute respiratory syndrome coronavirus 2 (2019-nCoV) (SARS-CoV-2), UniProt P0DTD1). As to the kind of experiment: SARS-CoV-2 3CLP FRET inhibition assay. Format: biochemical. To be noted: 80 nM SARS-CoV-2 3CLP, 100 μM FRET substrate, pH 7.8, 37° C.; read-out: 3CL Protease IC50. From the text: Compounds described herein were screened for SARS-CoV-2 3CLP inhibition using a Fluorescence resonance energy transfer (FRET) assay at different compound concentrations. Examples of the resulting concentration response curves are shown in FIGS. 1A and 1B, and examples of the determined 50 percent inhibition concentration (IC50) are provided in TABLE 1.
A synthesized fluorescent substrate containing the cleavage site (indicated by the arrow, ↓) of SARS-CoV-2 3CLP (2-Abz-SVTLQ↓SG-Tyr(NO2)—R—NH2) was used for the fluorescence resonance energy transfer (FRET)-based cleavage assay. The protease reaction of SARS-CoV-2 3CLP towards fluorescent substrate was performed in activity buffer (20 mM Bis Tris, pH 7.8, 1 mM DTT) at 37° C. for 10 min. The final concentration of protease used in the assay was fixed at 80 nM and the concentrations of the substrate were varied from 0.1 to 500 μM. Reaction was started with the enzyme and the fluorescence signal of the Abz-SVTLQ peptide cleavage product was monitored at an emission wavelength of 420 nm with excitation at 320 nm, using an Flx800 fluorescence spectrophotometer (BioTek). Before kinetic calculations, it was verified that the proportionality between the fluorescence emitted and the amount of the substrate used in the assay was linear. The minimal concentration of the enzyme and time of reaction that gave a linear dependence of amount of generated product with time was chosen. Initial velocities in corresponding relative fluorescence units per unit of time (ARFU/s) were converted to the amount of the cleaved substrate per unit of time (M/s) by fitting to the calibration curve of free Aminobenzoyl-SVTLQ. All data are corrected for inner filter effects by an adopted literature protocol. In short, the fluorescence signal (RFU) at each substrate concentration was determined and defined as f(FRET). Then, 5 μL free Aminobenzoyl-SVTLQ at final 5 μM was added to each concentration and fluorescence was taken f(FRET+Aminobenzoyl-SVTLQ). Simultaneously, a reference reading was taken with the same free Aminobenzoyl-SVTLQ concentration and defined as f(ref). The inner-filter correction was obtained as:
Stock solutions of the compounds were prepared with DMSO. For the determination of the IC50, 80 nM of SARS-CoV-2 3CLP was incubated with the compounds at various concentrations from 0 to 100 μM in 20 mM Bis-Tris, pH 7.8, 1 mM DTT at 37° C. for 10 min. The protease reaction was started by addition of 100 μM of the substrate. The GraphPad Prism 6.0 software (GraphPad) was used for the calculation of the IC50 values.

For a further data set, the system named is SARS-CoV-2. Description: SARS-CoV-2 plaque reduction assay in Vero E6 cells. Format: cell-based. The conditions noted are these: Severe acute respiratory syndrome coronavirus 2, Vero C1008, 48 h, read-out: SARS-CoV-2 Antiviral EC50. A general note: In a plaque reduction assay, fewer plaques than in the control indicate reduced infectivity or spread.
[3] abbreviates: human liver microsomes, NADPH, 37° C., read-out: Human Microsomes Half-life.
[4] abbreviates: mouse liver microsomes, NADPH, 37° C., read-out: Mouse Microsomes Half-life.

Structures are written as SMILES.

The term half-life denotes the time needed for the level to fall by half in the phase considered. As for `COc1cccc2[nH]c(C(=O)N[C@@H](CC(C)C)C(=O)N[C@@H](C[C@@H]3CCCNC3=O)C(=O)CO)cc12` [AVI-8004, reference compound], the half-life at 1 μM in data set [1] (human, microsomes) amounted to 34 min; in data set [2] (mouse, microsomes), 12 min.

On to `COc1cccc2[nH]c(C(=O)N[C@@H](CC(C)C)C(=O)N[C@H](C#N)C[C@@H]3CCCNC3=O)cc12` [AVI-8059, reference compound], for which the half-life at 1 μM in data set [1] (human, microsomes) came to 16 min; in data set [2] (mouse, microsomes), 10 min.

What is called CC50 is the concentration at which the toxic effect on the cells reaches its halfway point. Broadly, the IC50 is the concentration at which inhibition is half-maximal. Usually EC50 stands for the midpoint of the concentration-response curve. On to `O=C(N[C@@H](CC1CC1)C(=O)N[C@@H](C[C@@H]1CCCNC1=O)C(=O)CO)c1cc2cc(F)cc(F)c2[nH]1` [Compound 1, N-[(2S)-3-cyclopropyl-1-({(2S)-4-hydroxy-3-oxo-1-[(3S)-2-oxopiperidin-3-yl]butan-2-yl}amino)-1-oxopropan-2-yl]-5,7-difluoro-1H-indole-2-carboxamide], for which the CC50 at 24 h in “in vitro” is > 200 µM. Also, the results for the half-life at 1 μM in data set [1] (setting [3]) and in data set [2] (setting [4]) were 46 min and 57 min, respectively. At SARS-CoV-2 3CLP, the IC50 was < 0.05 µM. In addition, in the data set with SARS-CoV-2, the EC50 is < 10 µM.

On to `O=C(N[C@@H](CC1CC1)C(=O)N[C@@H](C[C@@H]1CCCNC1=O)C(=O)CO)c1cc2cccc(Cl)c2[nH]1` [Compound 2, 7-chloro-N-[(2S)-3-cyclopropyl-1-({(2S)-4-hydroxy-3-oxo-1-[(3S)-2-oxopiperidin-3-yl]butan-2-yl}amino)-1-oxopropan-2-yl]-1H-indole-2-carboxamide], for which the CC50 at 24 h in “in vitro” was > 200 µM. Besides, the half-life at 1 μM in data set [1] (setting [3]) turned out to be 26 min; in data set [2] (setting [4]), 15 min. Besides, the IC50 on SARS-CoV-2 3CLP is < 0.05 µM. Moreover, the EC50 with SARS-CoV-2 is < 5 µM.

Consider `O=C(N[C@@H](CC1CC1)C(=O)N[C@@H](C[C@@H]1CCNC1=O)C(=O)CO)c1cc2cc(F)cc(F)c2[nH]1` [Compound 3, N-[(2S)-3-cyclopropyl-1-({(2S)-4-hydroxy-3-oxo-1-[(3S)-2-oxopyrrolidin-3-yl]butan-2-yl}amino)-1-oxopropan-2-yl]-5,7-difluoro-1H-indole-2-carboxamide], for which the CC50 at 24 h in “in vitro” was > 200 µM. For the same molecule, the half-life at 1 μM in data set [1] (setting [3]) is > 145 min; in data set [2] (setting [4]), 124 min. Moreover, at SARS-CoV-2 3CLP, the IC50 was < 0.01 µM. The EC50 with SARS-CoV-2 is < 5 µM.

Turning to `O=C(N[C@@H](CC1CC1)C(=O)N[C@@H](C[C@@H]1CCNC1=O)C(=O)CO)c1cc2cccc(Cl)c2[nH]1` [Compound 4, 7-chloro-N-[(2S)-3-cyclopropyl-1-({(2S)-4-hydroxy-3-oxo-1-[(3S)-2-oxopyrrolidin-3-yl]butan-2-yl}amino)-1-oxopropan-2-yl]-1H-indole-2-carboxamide], in “in vitro”, the CC50 at 24 h is > 200 µM. Besides, the half-life at 1 μM was determined as 76 min in data set [1] (setting [3]) and 38 min in data set [2] (setting [4]). Further, the IC50 at SARS-CoV-2 3CLP was < 0.01 µM. In the data set with SARS-CoV-2, the EC50 is < 5 µM.

On to `O=C(N[C@@H](CC1CC1)C(=O)N[C@@H](C[C@@H]1CCNC1=O)C(=O)CO)c1cc2cccc(F)c2[nH]1` [Compound 5, N-[(2S)-3-cyclopropyl-1-({(2S)-4-hydroxy-3-oxo-1-[(3S)-2-oxopyrrolidin-3-yl]butan-2-yl}amino)-1-oxopropan-2-yl]-7-fluoro-1H-indole-2-carboxamide], for which the CC50 at 24 h in “in vitro” was > 200 µM. In addition, the results for the half-life at 1 μM in data set [1] (setting [3]) and in data set [2] (setting [4]) were > 145 min and 124 min, respectively. Also, the IC50 at SARS-CoV-2 3CLP is < 0.05 µM. For the same molecule, the EC50 in the data set with SARS-CoV-2 fell in the range of 5 to 10 µM.

Take `O=C(N[C@@H](CC1CC1)C(=O)N[C@@H](C[C@@H]1CCCNC1=O)C(=O)CO)c1cc2cccc(F)c2[nH]1` [Compound 9, N-[(2S)-3-cyclopropyl-1-({(2S)-4-hydroxy-3-oxo-1-[(3S)-2-oxopiperidin-3-yl]butan-2-yl}amino)-1-oxopropan-2-yl]-7-fluoro-1H-indole-2-carboxamide]: the CC50 at 24 h in the data set “in vitro” was > 200 µM. In addition, the half-life at 1 μM in data set [1] (setting [3]) was found to be 74 min; in data set [2] (setting [4]), 91 min. The IC50 on SARS-CoV-2 3CLP was < 0.01 µM. The EC50 in the data set on SARS-CoV-2 was < 5 µM.

Regarding `CC(C)[C@H](N)C(=O)OCC(=O)[C@H](C[C@@H]1CCCNC1=O)NC(=O)[C@H](CC1CC1)NC(=O)c1cc2cc(F)cc(F)c2[nH]1.Cl` [Compound 17, (3S)-3-{[3-cyclopropyl-N-(5,7-difluoro-1H-indole-2-carbonyl)-L-alanyl]amino}-2-oxo-4-[(3S)-2-oxopiperidin-3-yl]butyl L-valinate hydrochloride Salt], the CC50 at 24 h in the data set “in vitro” is > 200 µM. Further, the half-life at 1 μM in data set [1] (setting [3]) and in data set [2] (setting [4]) was 6 min each time. Moreover, the IC50 at SARS-CoV-2 3CLP is < 0.05 µM. In addition, the EC50 in the data set on SARS-CoV-2 was < 5 µM.

In the case of `N#C[C@H](C[C@@H]1CCCNC1=O)NC(=O)[C@H](CC1CC1)NC(=O)c1cc2cccc(Cl)c2[nH]1` [PBI-0451, reference compound], the half-life at 1 μM stood at 11 min in data set [1] (human, microsomes) and 12 min in data set [2] (mouse, microsomes).

Regarding `CC(C)(C)[C@H](NC(=O)C(F)(F)F)C(=O)N1C[C@H]2[C@@H]([C@H]1C(=O)N[C@H](C#N)C[C@@H]1CCNC1=O)C2(C)C` [nirmatrelvir, reference compound], the half-life at 1 μM was 40 min in data set [1] (human, microsomes) and 15 min in data set [2] (mouse, microsomes).
